Legend:
Assay type in all cases: cell-based, human
[1] = system: P-selectin (CD62p); assay: Unstimulated whole blood flow cytometry, P-selectin; conditions: unstimulated, Mean ± SD
Description: (§1) The methodology employed was conventional aggregation induced by 5 μM ADP, 1 μg/ml collagen, 10 μM TRAP, whole blood aggregation with 1 μg/ml collagen, Ultegra, and PFA-100 Analyzers, expression of 14 intact, and TRAP-stimulated major receptors by whole blood flow cytometry were utilized to assess platelet activity after preincubation with escalating concentrations of E5555 (20 ng/ml, 50 ng/ml, and 100 ng/ml). The experiments were performed in healthy volunteers, CAD patients treated with ASA, and CAD patients treated with ASA and clopidogrel combination (n=10, for each group).
(§2) An Informed Consent was obtained from all volunteers. Drug users were excluded from data analysis. The study was approved by Quorum Institutional Review Board. All subjects underwent blood sampling after at least 30 minutes of rest and two or more hours of fasting. Blood (28 ml) was drawn between 8 and 10 a.m. in order to avoid any diurnal influence and sampled from an antecubital vein using a 21-gauge butterfly needle containing 3.2% sodium citrate (1:9 volume) after having discarded the first 1.5 ml of free running blood. Four Vacutainer tubes (7.0 ml) were collected for a total of 28 ml of whole blood-citrate mixture from each study participant. Chronologically, blood samples were delivered to the core laboratory facility within 45 minutes after drawing. Then all tubes of blood-citrate mixture were pooled. One portion of pooled blood (5 ml) was kept as an internal control and pretreated with the vehicle. The remaining blood (23 ml) was used for the in vitro exposure to E5555 at concentrations of 20 ng/ml, 50 ng/ml, and 100 ng/ml. […] The platelet aggregation studies, Rapid Analyzers measures, and flow cytometry preparations were initiated within no more than 110 minutes following the blood draw, incubation with the drug, and preparation of the samples.
(§3) Formation of platelet-leukocyte aggregates was assessed by dual labeling with pan-platelet marker (CD151), and then with CD14, the macrophage receptor for endotoxin lipopolysaccharides (PharMingen, and Coulter, San Diego, Calif., USA). The tubes were then covered with aluminum foil and incubated at 37° C. for 40 minutes with gentle rotation. After incubation, samples were immediately analyzed on a Becton Dickinson FACScan flow cytometer. The instrument was set up to measure forward light scatter, and FITC fluorescence. All parameters were collected using four-decade logarithmic amplification. The data was retrieved in list mode files and then analyzed. P selectin was expressed as percent positive cells. Other antigens were expressed as log mean fluorescence intensity.

[2] = system: LAMP-3 (CD63); assay: TRAP-stimulated whole blood flow cytometry, LAMP-3; conditions: Mean ± SD
Description: as §1, §2, §3
(§4) For flow cytometry (TRAP-stimulated) all of the above flow cytometry experiments were identically repeated utilizing prestimulation with 10 μmol/L TRAP for 5 minutes at 37° C. To determine statistics, a Paired Sign Test was used to define significance of differences between vehicle and E5555-treated groups. The Mann-Whitney U test was used to analyze nonparametric data. Normally distributed data were expressed as mean±standard error (m±SE), and skewed data as median (range). All P-values were two sided. All analysis was performed using the SPSS v9.0 program (SPSS Inc., Chicago, Ill.).

[3] = system: GP37 (CD165); assay: TRAP-stimulated whole blood flow cytometry, GP37; conditions: Mean ± SD
Description: as §1, §2, §3, §4

[4] = system: GPIIb antigen (CD41); assay: TRAP-stimulated whole blood flow cytometry, GPIIb antigen; conditions: Mean ± SD
Description: as §1, §2, §3, §4

[5] = E5555 50 ng/ml, Patients (ASA + C)
[6] = E5555 100 ng/ml, Patients (ASA + C)
[7] = E5555 100 ng/ml, Patients (ASA)
[8] = E5555 20 ng/ml, Patients (ASA + C)

## Br.CCOc1cc2c(c(F)c1OCC)C(=N)N(CC(=O)c1cc(N3CCOCC3)c(OC)c(C(C)(C)C)c1)C2 [E5555, 1-(3-tert-butyl-4-methoxy-5-morpholinophenyl)-2-(5,6-diethoxy-7-fluoro-1-imino-1,3-dihydro-2H-isoindol-2-yl)ethanone hydrobromide]
[1]; E5555 20 ng/ml, Patients (ASA)
  P-selectin (CD62p), % positive cells: 9.7 ± 1.5 % positive cells
[1]; E5555 20 ng/ml, Volunteers
  P-selectin (CD62p), % positive cells: 10.8 ± 2.0 % positive cells
[1]; [5]
  P-selectin (CD62p), % positive cells: 7.7 ± 2.2 % positive cells
[1]; E5555 50 ng/ml, Patients (ASA)
  P-selectin (CD62p), % positive cells: 10.1 ± 1.8 % positive cells
[1]; E5555 50 ng/ml, Volunteers
  P-selectin (CD62p), % positive cells: 12.3 ± 2.2 % positive cells
[1]; [6]
  P-selectin (CD62p), % positive cells: 8.0 ± 11.5 % positive cells
[1]; [7]
  P-selectin (CD62p), % positive cells: 10.7 ± 1.6 % positive cells
[1]; E5555 100 ng/ml, Volunteers
  P-selectin (CD62p), % positive cells: 11.4 ± 1.8 % positive cells
[2]; [8]
  LAMP-3 (CD63), Mean Fluorescence Intensity: 20 ± 5 MFI
[2]; E5555 20 ng/ml, Patients (ASA)
  LAMP-3 (CD63), Mean Fluorescence Intensity: 24 ± 8 MFI
[2]; E5555 20 ng/ml, Volunteers
  LAMP-3 (CD63), Mean Fluorescence Intensity: 26 ± 7 MFI
[2]; [5]
  LAMP-3 (CD63), Mean Fluorescence Intensity: 5 ± 3 MFI
[2]; E5555 50 ng/ml, Patients (ASA)
  LAMP-3 (CD63), Mean Fluorescence Intensity: 9 ± 3 MFI
[2]; E5555 50 ng/ml, Volunteers
  LAMP-3 (CD63), Mean Fluorescence Intensity: 8 ± 2 MFI
[2]; [6]
  LAMP-3 (CD63), Mean Fluorescence Intensity: 4 ± 1 MFI
[2]; [7]
  LAMP-3 (CD63), Mean Fluorescence Intensity: 5 ± 1 MFI
[2]; E5555 100 ng/ml, Volunteers
  LAMP-3 (CD63), Mean Fluorescence Intensity: 7 ± 2 MFI
[3]; [8]
  GP37 (CD165), Mean Fluorescence Intensity: 27 ± 4 MFI
[3]; E5555 20 ng/ml, Patients (ASA)
  GP37 (CD165), Mean Fluorescence Intensity: 27 ± 5 MFI
[3]; E5555 20 ng/ml, Volunteers
  GP37 (CD165), Mean Fluorescence Intensity: 32 ± 6 MFI
[3]; [5]
  GP37 (CD165), Mean Fluorescence Intensity: 18 ± 4 MFI
[3]; E5555 50 ng/ml, Patients (ASA)
  GP37 (CD165), Mean Fluorescence Intensity: 20 ± 7 MFI
[3]; E5555 50 ng/ml, Volunteers
  GP37 (CD165), Mean Fluorescence Intensity: 28 ± 5 MFI
[3]; [6]
  GP37 (CD165), Mean Fluorescence Intensity: 21 ± 9 MFI
[3]; [7]
  GP37 (CD165), Mean Fluorescence Intensity: 22 ± 6 MFI
[3]; E5555 100 ng/ml, Volunteers
  GP37 (CD165), Mean Fluorescence Intensity: 29 ± 4 MFI
[4]; [8]
  GPIIb antigen (CD41), Mean Fluorescence Intensity: 328 ± 41 MFI
[4]; E5555 20 ng/ml, Patients (ASA)
  GPIIb antigen (CD41), Mean Fluorescence Intensity: 471 ± 38 MFI
[4]; E5555 20 ng/ml, Volunteers
  GPIIb antigen (CD41), Mean Fluorescence Intensity: 504 ± 18 MFI
[4]; [5]
  GPIIb antigen (CD41), Mean Fluorescence Intensity: 209 ± 30 MFI
[4]; E5555 50 ng/ml, Patients (ASA)
  GPIIb antigen (CD41), Mean Fluorescence Intensity: 376 ± 35 MFI
[4]; E5555 50 ng/ml, Volunteers
  GPIIb antigen (CD41), Mean Fluorescence Intensity: 390 ± 31 MFI
[4]; [6]
  GPIIb antigen (CD41), Mean Fluorescence Intensity: 176 ± 19 MFI
[4]; [7]
  GPIIb antigen (CD41), Mean Fluorescence Intensity: 304 ± 40 MFI
[4]; E5555 100 ng/ml, Volunteers
  GPIIb antigen (CD41), Mean Fluorescence Intensity: 364 ± 37 MFI
